How the values were obtained:
[1] = Inhibitory activity against type A neuraminidase (N2); parameters: species or system unidentified influenza virus
[2] = Inhibitory activity against type A neuraminidase (N9); parameters: species or system unidentified influenza virus

Compound: C=C(C)NC(C(CC)CC)[C@@H]1[C@H](O)[C@@H](C(=O)O)C[C@H]1N=C(N)N (some centres not stated)
- Log IC50 [1]: -10
- Log IC50 [2]: -10

Reference: ChEMBL document CHEMBL1134378 (J Med Chem, 2001)
